Values joined by “and” are separate entries in the source; they are usually repeats but may differ in a detail not shown here. Equal entries are not always repeated. Where two headings read alike, the source gives them in different places.
What was measured:
Format in all cases: binding
FABP5 [1] = molecular target: T1, FABP5 (Homo sapiens, UniProt Q01469); assay: DHA displacement of 16-DSA from FABP5 by CW EPR; conditions: FABP5/16-DSA/DHA 20/20/0, before DHA addition
T1 construct: purchased Sigma Aldrich
T1 sequence (Q01469 whole entry): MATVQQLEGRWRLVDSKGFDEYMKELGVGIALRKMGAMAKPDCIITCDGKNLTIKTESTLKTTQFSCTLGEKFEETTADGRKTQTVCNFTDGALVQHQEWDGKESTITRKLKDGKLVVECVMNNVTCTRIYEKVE
Description: In a second addition during revision, we were curious about the question of whether our model ligands that bind with medium affinity to the FABP binding pocket will be displaced when we add a native ligand with higher affinity and whether we could detect this displacement with our CW EPR setup. The native ligand DHA was chosen for this displacement analysis since it is well-known to bind with high affinity to FABP5 ([26]). DHA was pre-dissolved in ethanol, diluted into buffer, and mixed with FABP5 and 16-DSA. […] Samples with FABP5/16-DSA/DHA ratios 20/20/0, 20/20/5, 20/20/10, 20/20/20, 20/20/50, and 20/20/100 were prepared with 5 min incubation time in between 16-DSA and DHA addition. […] We assume that the well-known high binding affinity of DHA refers to the state of strong binding within the pocket. […] Instead, a dynamic exchange of ligands seems to occur, as we consistently observe it with albumins from different species. However, this part opens the way to other future competitive binding assays via CW EPR spectroscopy, e.g., with pharmaceuticals that bind to FABPs.
CW EPR spectroscopic measurements were performed at X-band frequencies (∼9.4 GHz) with a benchtop spectrometer Magnettech MS-5000 (Freiberg Instruments GmbH, now Bruker Biospin). The samples were prepared in low-binding PCR tubes (250 μl). Protein and 5/16-DSA solutions were mixed with HEPES/NaCl buffer at pH 7.5, to obtain samples with a constant 5/16-DSA concentration of 20 μM and varying FABP concentrations of 200, 100, 50, 35, 25, 20, 15, 10 and 5 μM. After an incubation time of 20 min, the samples were transferred into glass capillaries, which were sealed with ‘Critoseal’. At first, solutions with 20 μM of 5/16-DSA were measured as references at 37 °C. The concentration series of FABP with 20 μM 5/16-DSA were measured at 37 °C, directly after preparation. Afterward, the sample capillaries were stored at 4 °C, and subsequent temperature-dependent measurements were performed. […]

FABP4 = molecular target: T2, FABP4 (Homo sapiens, UniProt P15090); assay: CW EPR spectra and spectral simulations of spin-probed fatty acids with FABP4
T2 construct: purchased Sigma Aldrich
T2 sequence (P15090 whole entry): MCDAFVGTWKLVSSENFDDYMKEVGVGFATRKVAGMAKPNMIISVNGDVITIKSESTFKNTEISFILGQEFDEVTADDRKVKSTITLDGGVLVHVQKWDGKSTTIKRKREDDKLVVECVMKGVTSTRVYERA
Description: (§1) For a more in-depth view of the binding mechanism, CW EPR spectra of 5/16-DSA with concentration series of the FABPs were measured and simulated. […] Equal concentrations of 20 μM of each spin probe (5- and 16-DSA) were mixed with FABP concentrations of 0 to 200 μM, increasing the resulting ligand/protein ratio in the samples stepwise from 1/0 to 1/10.
(§2) To analyze the spectra quantitatively, subsequent EPR spectral simulations were performed (Fig. 2, B and C). […] For a better understanding, a first interpretation of these components is given at this point. The rotational dynamics are thought to be indirectly proportional to the strength of intermolecular interactions between fatty acid and FABP. Therefore, they are indicative of the binding state of the fatty acids. Higher rotational correlation times signalize lower ligand dynamics and stronger interactions with the protein. […] This exchange broadening can only occur if radicals are located very close distance each other, colliding with each other, leading to partial overlap of spin-bearing orbitals.
(§3) The fractions (weights) Φx of the spectral components were extracted from the EPR simulations of the concentration series and were used to calculate the concentrations of all components with Eq (1). in Figure 3. This was performed for the intermediately and strongly bound components, as well as for their sum, called totally bound 5/16-DSA, to construct binding curves for all FABPs and spin probes. […] Different fit functions were applied to the curves for a better qualitative and quantitative analysis.

FABP5 [2] = molecular target: T1, FABP5; assay: CW EPR spectra and spectral simulations of spin-probed fatty acids with FABP5; conditions: for increase of intermediately bound component: FABPx/16-DSA 20/20 μM
Description: as §1, §2, §3

FABP3 = molecular target: T3, FABP3 (Homo sapiens, UniProt P05413); assay: CW EPR spectra and spectral simulations of spin-probed fatty acids with FABP3; conditions: for increase of intermediately bound component: FABPx/16-DSA 20/20 μM
T3 construct: purchased Sigma Aldrich
T3 sequence (P05413 whole entry): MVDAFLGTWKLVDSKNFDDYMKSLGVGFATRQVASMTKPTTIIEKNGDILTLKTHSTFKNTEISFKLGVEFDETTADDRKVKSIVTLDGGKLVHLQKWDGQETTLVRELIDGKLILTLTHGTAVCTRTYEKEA
Description: as §1, §2, §3

[3] = 37 °C, 20 μM spin probe, EPR binding curve, read-out: KD,T,75′ (fit), apparent KD read at 75% totally bound
[4] = Hill fit of EPR binding curve, totally bound, 37 °C
[5] = Hill fit, totally bound (T), y = bound 5/16-DSA
[6] = read-out: KD,T,50′ (fit), apparent KD read at 50% totally bound, 37 °C, 20 μM spin probe, EPR binding curve
[7] = FABP5/16-DSA 100/100 μM/μM, 37 °C
[8] = changing the buffer from HEPES to TRIS, pH 7.5
[9] = lowering the pH from 7.5 to 6 in HEPES/NaCl
[10] = FABP3/16-DSA 100/100 μM/μM, 37 °C

bound 16-DSA (FABP5 [1]): 72% | Kd (FABP4; 37 °C, 20 μM FABP4, 20 μM spin probe, read-out: KD,T,20μM (calculated, totally bound)): 10 ± 0.75 µM | Kd (FABP4; [3]): 43.6 ± 0.4 µM | Kd (FABP4; 37 °C, 50 μM FABP4, 20 μM spin probe, read-out: KD,T,50μM (calculated, totally bound)): 8.5 ± 4.1 µM | ΔGF−I,100μM (free to intermediately bound) (FABP4; 37 °C, 100 μM FABP4): -6.79 ± 0.22 kcal/mol | ΔGF−T,100μM (free to totally bound) (FABP4; 37 °C, 100 μM FABP4): -6.79 ± 0.22 kcal/mol | Kd (FABP4; 37 °C, 100 μM FABP4, 20 μM spin probe, read-out: KD,T,100μM (calculated, totally bound)): 16.7 ± 0.44 µM | aiso, component (1) free (FABP4; 37 °C, EPR simulation): 44.1 MHz | aiso, component (2) intermediately bound (FABP4; 37 °C, EPR simulation): 44.7–48.0 MHz | τc,iso, component (1) free (FABP4; 37 °C, EPR simulation): 0.05–0.13 ns | τc,iso, component (2) intermediately bound (FABP4; 37 °C, EPR simulation): 4.0–5.8 ns | τc,iso, component (3) strongly bound (FABP4; 37 °C, EPR simulation): 22.2 ns | Hill coefficient n (FABP4; [4]): 1.454 and > 1 | Hill fit k (FABP4; Hill fit, totally bound (T), x = c(FABP4)/c(5/16-DSA)): 0.797 ± 0.047 | Hill fit Vmax (FABP4; [5]): 92.29 ± 2.876 | Kd (FABP4; [6]): 17.8 ± 0.2 µM | Kd (FABP5 [2]; 37 °C, 20 μM FABP5, 20 μM spin probe, read-out: KD,T,20μM (calculated, totally bound)): 2.14 ± 0.7 µM | Kd (FABP5 [2]; [3]): 22 ± 0.2 µM | Kd (FABP5 [2]; 37 °C, 50 μM FABP5, 20 μM spin probe, read-out: KD,T,50μM (calculated, totally bound)): 5.87 ± 1.21 µM | ΔGF−I,100μM (free to intermediately bound) (FABP5 [2]; 37 °C, 100 μM FABP5): -6.38 ± 0.072 kcal/mol | ΔGF−S,100μM (free to strongly bound) (FABP5 [2]; 37 °C, 100 μM FABP5): -4.64 ± 0.024 kcal/mol | ΔGF−T,100μM (free to totally bound) (FABP5 [2]; 37 °C, 100 μM FABP5): -7.17 ± 0.19 kcal/mol | ΔGI−S,100μM (intermediately to strongly bound) (FABP5 [2]; 37 °C, 100 μM FABP5): 0.956 ± 0.024 kcal/mol | Kd (FABP5 [2]; 37 °C, 100 μM FABP5, 20 μM spin probe, read-out: KD,T,100μM (calculated, totally bound)): 8.9 ± 0.34 µM | aiso, component (1) free (FABP5 [2]; 37 °C, EPR simulation): 44.1 MHz | aiso, component (2) intermediately bound (FABP5 [2]; 37 °C, EPR simulation): 37–42.3 MHz | aiso, component (3) strongly bound (FABP5 [2]; 37 °C, EPR simulation): 37 MHz | τc,iso, component (1) free (FABP5 [2]; 37 °C, EPR simulation): 0.05–0.07 ns | τc,iso, component (2) intermediately bound (FABP5 [2]; 37 °C, EPR simulation): 5.7 ns | τc,iso, component (3) strongly bound (FABP5 [2]; 37 °C, EPR simulation): 22.2 ns | totally bound fraction (FABP5 [2]; 37 °C, high FABP5 excess): 93% | intermediately bound proportion (FABP5 [2]; FABP5/16-DSA 10/10 μM/μM, 37 °C): 61.5% | intermediately bound proportion (FABP5 [2]; FABP5/16-DSA 20/20 μM/μM, 37 °C): 72.2% | intermediately bound proportion (FABP5 [2]; FABP5/16-DSA 50/50 μM/μM, 37 °C): 80.8% | intermediately bound proportion (FABP5 [2]; [7]): 81% | strongly bound component (FABP5 [2]; [7]): 9.5% | increase of intermediately bound component (FABP5 [2]; [8]): 6 to 8% | increase of intermediately bound component (FABP5 [2]; [9]): 16 to 18% | Hill coefficient n (FABP5 [2]; [4]): 0.852 ± 0.04 and < 1 | Hill fit k (FABP5 [2]; Hill fit, totally bound (T), x = c(FABP5)/c(5/16-DSA)): 0.315 ± 0.011 | Hill fit Vmax (FABP5 [2]; [5]): 98.288 ± 1.318 | Kd (FABP5 [2]; [6]): 7.6 ± 0.1 µM | Kd (FABP3; 37 °C, 20 μM FABP3, 20 μM spin probe, read-out: KD,T,20μM (calculated, totally bound)): 1.08 ± 0.55 µM | Kd (FABP3; [3]): 18 ± 0.2 µM | Kd (FABP3; 37 °C, 50 μM FABP3, 20 μM spin probe, read-out: KD,T,50μM (calculated, totally bound)): 0.81 µM | ΔGF−I,100μM (free to intermediately bound) (FABP3; 37 °C, 100 μM FABP3): -8.05 ± 0.598 kcal/mol | ΔGF−S,100μM (free to strongly bound) (FABP3; 37 °C, 100 μM FABP3): -3.13 ± 0.024 kcal/mol | ΔGF−T,100μM (free to totally bound) (FABP3; 37 °C, 100 μM FABP3): -8.96 ± 1.29 kcal/mol | ΔGI−S,100μM (intermediately to strongly bound) (FABP3; 37 °C, 100 μM FABP3): 2.53 ± 0.048 kcal/mol | Kd (FABP3; 37 °C, 100 μM FABP3, 20 μM spin probe, read-out: KD,T,100μM (calculated, totally bound)): 0.48 µM | aiso, component (1) free (FABP3; 37 °C, EPR simulation): 44.1 MHz | aiso, component (2) intermediately bound (FABP3; 37 °C, EPR simulation): 41.6–42.6 MHz | aiso, component (3) strongly bound (FABP3; 37 °C, EPR simulation): 38.7 MHz | τc,iso, component (1) free (FABP3; 37 °C, EPR simulation): 0.04–0.1 ns | τc,iso, component (2) intermediately bound (FABP3; 37 °C, EPR simulation): 5.2–8.4 ns | τc,iso, component (3) strongly bound (FABP3; 37 °C, EPR simulation): 19.1–22.2 ns | intermediately bound proportion (FABP3; FABP3/16-DSA 10/10 μM/μM, 37 °C): 67.1% | intermediately bound proportion (FABP3; FABP3/16-DSA 20/20 μM/μM, 37 °C): 72.6% | intermediately bound proportion (FABP3; FABP3/16-DSA 50/50 μM/μM, 37 °C): 85.9% | intermediately bound proportion (FABP3; [10]): 90.3% | strongly bound component (FABP3; [10]): 2.8% | increase of intermediately bound component (FABP3; [8]): 6 to 8% | increase of intermediately bound component (FABP3; [9]): 16 to 18% | Hill fit k (FABP3; Hill fit, totally bound (T), x = c(FABP3)/c(5/16-DSA)): 0.535 ± 0.005 | Hill fit Vmax (FABP3; [5]): 100.399 ± 0.459 | Kd (FABP3; [6]): 10.6 ± 0.1 µM
Structure (SMILES): CCC1(CCCCCCCCCCCCCCC(=O)O)OCC(C)(C)N1[O] (stereo not drawn) [16-DSA, 16-DOXYL stearic acid]

— publication PMC11231610, “Fatty acid binding to the human transport proteins FABP3, FABP4, and FABP5 from a Ligand’s perspective” (The Journal of Biological Chemistry, 2024)
